{
  "source": "patent US11771765B2",
  "about": "“Light augmented treatment method” (The Procter & Gamble Company, priority 2019, dated 2023)",
  "system": "M. furfur",
  "experiment": "M. furfur viability on mDixon agar plates after Piroctone Olamine and 409 nm light (Table 3)",
  "assay_type": "cell-based, Malassezia furfur",
  "parameters": "key to growth on mDixon agar plate (score): +: a continuous fungal lawn; +/−: a lawn with breaks allowing the agar to show; −: 0 to 5 colonies",
  "procedure": "M. furfur is incubated for one hour with the indicated concentrations of Piroctone Olamine then a cell pellet of 4 OD*mL is collected by centrifugation so that most of the anti-fungal material has been removed. The cell pellet is suspended in 4.2 mL PBS and 1 mL samples are distributed to four 12 well plates and treated with light (409 nm, 1200 fc) for 1, 10 or 60 minutes or stored in the dark. Samples are processed as described previously with 600 uL diluted into 13 mL mDixon and 50 uL of the photolyzed cells are diluted into 50 uL of mDixon then three 40 uL+360 uL mDixon dilutions are prepared.\nWhere +=a continuous fungal lawn, +/−=a lawn with breaks allowing the agar to show, −=0 to 5 colonies\nAfter the photolysis, 0.6 mL is added to 13 mL fresh mDixon and grown overnight but, in addition, 50 uL is added to 50 uL mDixon then that sample is diluted 3 more times 40 uL=>400 uL and 10 uL of each of the dilutions are plated in duplicate on mDixon agar plates.",
  "data": [
    {"smiles": "Cc1cc(CC(C)CC(C)(C)C)n(O)c(=O)c1.NCCO", "note": "(centres unmarked) [Piroctone Olamine, 1-Hydroxy-4-methyl-6-(2,4,4-trimethylpentyl)-2-pyridone monoethanolamine salt]", "values": [
      {"measurement": "effect of light on viable cells", "setting": "8 ppm", "result": "no effect"},
      {"measurement": "holding growth down overnight in the original samples", "setting": "8 ppm", "result": "does not hold M. furfur growth down overnight"},
      {"measurement": "growth on mDixon agar plate (score)", "setting": "8 ppm 1 h, culture dilution 1:2, 409 nm light 1 min", "result": "+"},
      {"measurement": "growth on mDixon agar plate (score)", "setting": "8 ppm 1 h, culture dilution 1:2, 409 nm light 10 min", "result": "+"},
      {"measurement": "growth on mDixon agar plate (score)", "setting": "8 ppm 1 h, culture dilution 1:2, 409 nm light 60 min", "result": "+"},
      {"measurement": "growth on mDixon agar plate (score)", "setting": "8 ppm 1 h, culture dilution 1:2, Dark", "result": "+"},
      {"measurement": "growth on mDixon agar plate (score)", "setting": "8 ppm 1 h, culture dilution 1:20, 409 nm light 1 min", "result": "+"},
      {"measurement": "growth on mDixon agar plate (score)", "setting": "8 ppm 1 h, culture dilution 1:20, 409 nm light 10 min", "result": "+"},
      {"measurement": "growth on mDixon agar plate (score)", "setting": "8 ppm 1 h, culture dilution 1:20, 409 nm light 60 min", "result": "+"},
      {"measurement": "growth on mDixon agar plate (score)", "setting": "8 ppm 1 h, culture dilution 1:20, Dark", "result": "+"},
      {"measurement": "growth on mDixon agar plate (score)", "setting": "8 ppm 1 h, culture dilution 1:200, 409 nm light 1 min", "result": "+/−"},
      {"measurement": "growth on mDixon agar plate (score)", "setting": "8 ppm 1 h, culture dilution 1:200, 409 nm light 10 min", "result": "+/−"},
      {"measurement": "growth on mDixon agar plate (score)", "setting": "8 ppm 1 h, culture dilution 1:200, 409 nm light 60 min", "result": "+/−"},
      {"measurement": "growth on mDixon agar plate (score)", "setting": "8 ppm 1 h, culture dilution 1:200, Dark", "result": "+/−"},
      {"measurement": "growth on mDixon agar plate (score)", "setting": "8 ppm 1 h, culture dilution 1:2000, 409 nm light 1 min", "result": "+/−"},
      {"measurement": "growth on mDixon agar plate (score)", "setting": "8 ppm 1 h, culture dilution 1:2000, 409 nm light 10 min", "result": "+/−"},
      {"measurement": "growth on mDixon agar plate (score)", "setting": "8 ppm 1 h, culture dilution 1:2000, 409 nm light 60 min", "result": "+/−"},
      {"measurement": "growth on mDixon agar plate (score)", "setting": "8 ppm 1 h, culture dilution 1:2000, Dark", "result": "+/−"},
      {"measurement": "holding growth down overnight in the original samples", "setting": "16 and 32 ppm", "result": "16 and 32 ppm do"},
      {"measurement": "fewer viable cells", "setting": "16 and 32 ppm, 1 minute of light exposure", "result": "about 10 fold"},
      {"measurement": "fewer cells", "setting": "16 and 32 ppm, longer light exposures", "result": "> 100", "unit": "fold"},
      {"measurement": "growth on mDixon agar plate (score)", "setting": "16 ppm 1 h, culture dilution 1:2, 409 nm light 1 min", "result": "+"},
      {"measurement": "growth on mDixon agar plate (score)", "setting": "16 ppm 1 h, culture dilution 1:2, 409 nm light 10 min", "result": "+/−"},
      {"measurement": "growth on mDixon agar plate (score)", "setting": "16 ppm 1 h, culture dilution 1:2, 409 nm light 60 min", "result": "+/−"},
      {"measurement": "growth on mDixon agar plate (score)", "setting": "16 ppm 1 h, culture dilution 1:2, Dark", "result": "+"},
      {"measurement": "growth on mDixon agar plate (score)", "setting": "16 ppm 1 h, culture dilution 1:20, 409 nm light 1 min", "result": "+/−"},
      {"measurement": "growth on mDixon agar plate (score)", "setting": "16 ppm 1 h, culture dilution 1:20, 409 nm light 10 min", "result": "+/−"},
      {"measurement": "growth on mDixon agar plate (score)", "setting": "16 ppm 1 h, culture dilution 1:20, 409 nm light 60 min", "result": "+/−"},
      {"measurement": "growth on mDixon agar plate (score)", "setting": "16 ppm 1 h, culture dilution 1:20, Dark", "result": "+"},
      {"measurement": "growth on mDixon agar plate (score)", "setting": "16 ppm 1 h, culture dilution 1:200, 409 nm light 1 min", "result": "+/−"},
      {"measurement": "growth on mDixon agar plate (score)", "setting": "16 ppm 1 h, culture dilution 1:200, 409 nm light 10 min", "result": "− (0 to 5 colonies)"},
      {"measurement": "growth on mDixon agar plate (score)", "setting": "16 ppm 1 h, culture dilution 1:200, 409 nm light 60 min", "result": "− (0 to 5 colonies)"},
      {"measurement": "growth on mDixon agar plate (score)", "setting": "16 ppm 1 h, culture dilution 1:200, Dark", "result": "+/−"},
      {"measurement": "growth on mDixon agar plate (score)", "setting": "16 ppm 1 h, culture dilution 1:2000, 409 nm light 1 min", "result": "+/−"},
      {"measurement": "growth on mDixon agar plate (score)", "setting": "16 ppm 1 h, culture dilution 1:2000, 409 nm light 10 min", "result": "− (0 to 5 colonies)"},
      {"measurement": "growth on mDixon agar plate (score)", "setting": "16 ppm 1 h, culture dilution 1:2000, 409 nm light 60 min", "result": "− (0 to 5 colonies)"},
      {"measurement": "growth on mDixon agar plate (score)", "setting": "16 ppm 1 h, culture dilution 1:2000, Dark", "result": "+/−"},
      {"measurement": "growth on mDixon agar plate (score)", "setting": "32 ppm 1 h, culture dilution 1:2, 409 nm light 1 min", "result": "+"},
      {"measurement": "growth on mDixon agar plate (score)", "setting": "32 ppm 1 h, culture dilution 1:2, 409 nm light 10 min", "result": "+/−"},
      {"measurement": "growth on mDixon agar plate (score)", "setting": "32 ppm 1 h, culture dilution 1:2, 409 nm light 60 min", "result": "+/−"},
      {"measurement": "growth on mDixon agar plate (score)", "setting": "32 ppm 1 h, culture dilution 1:2, Dark", "result": "+"},
      {"measurement": "growth on mDixon agar plate (score)", "setting": "32 ppm 1 h, culture dilution 1:20, 409 nm light 1 min", "result": "+/−"},
      {"measurement": "growth on mDixon agar plate (score)", "setting": "32 ppm 1 h, culture dilution 1:20, 409 nm light 10 min", "result": "+/−"},
      {"measurement": "growth on mDixon agar plate (score)", "setting": "32 ppm 1 h, culture dilution 1:20, 409 nm light 60 min", "result": "+/−"},
      {"measurement": "growth on mDixon agar plate (score)", "setting": "32 ppm 1 h, culture dilution 1:20, Dark", "result": "+"},
      {"measurement": "growth on mDixon agar plate (score)", "setting": "32 ppm 1 h, culture dilution 1:200, 409 nm light 1 min", "result": "+/−"},
      {"measurement": "growth on mDixon agar plate (score)", "setting": "32 ppm 1 h, culture dilution 1:200, 409 nm light 10 min", "result": "+/−"},
      {"measurement": "growth on mDixon agar plate (score)", "setting": "32 ppm 1 h, culture dilution 1:200, 409 nm light 60 min", "result": "− (0 to 5 colonies)"},
      {"measurement": "growth on mDixon agar plate (score)", "setting": "32 ppm 1 h, culture dilution 1:200, Dark", "result": "+/−"},
      {"measurement": "growth on mDixon agar plate (score)", "setting": "32 ppm 1 h, culture dilution 1:2000, 409 nm light 1 min", "result": "+/−"},
      {"measurement": "growth on mDixon agar plate (score)", "setting": "32 ppm 1 h, culture dilution 1:2000, 409 nm light 10 min", "result": "− (0 to 5 colonies)"},
      {"measurement": "growth on mDixon agar plate (score)", "setting": "32 ppm 1 h, culture dilution 1:2000, 409 nm light 60 min", "result": "− (0 to 5 colonies)"},
      {"measurement": "growth on mDixon agar plate (score)", "setting": "32 ppm 1 h, culture dilution 1:2000, Dark", "result": "+/−"}
    ]}
  ]
}
